# In publication PMC4579270, “Identification and Characterization of an Irreversible Inhibitor of CDK2” (Chemistry & Biology, 2015):
# Columns and labels:
# Assay in all cases: Dundee protein kinase screen
# Type in all cases: biochemical
# MNK2 = MNK2 (Homo sapiens, UniProt Q9HBH9); conditions: MNK2, 1µM; read-out: %Remaining activity at 1µM NU6300
# Method: (§1) Prior to determining its cellular activity, we carried out a screen to assess its selectivity against a panel of 131 protein kinases under conditions that would not distinguish between a reversible or irreversible mode of action. […] These 13 kinases and 29 additional kinases, selected for their known sensitivity to other inhibitors within the purine series, were then tested in a modified screening format in which the assay was repeated following a 4-hr pre-incubation (Table S3B). […] However, conformational flexibility around the active site may promote such an interaction with a residue from another part of the structure ([Martin et al., 2012]).
# (§2) Table S3, Related to Figure 4. NCL-0006300 protein kinase selectivity. (A) NU6300 was tested at a single concentration of 1µM against 131 protein kinases present in a Dundee protein kinase screen (Bain et al., 2007). Values given are % activity remaining and are the average of duplicate measurements: 0-25% (red), 26-50% (yellow), 51-80% […]
# (§3) (black) and above 81% (green). […]
# SRPK1 = SRPK1 (Homo sapiens, UniProt Q96SB4); conditions: SRPK1, 1µM; read-out: %Remaining activity at 1µM NU6300
# Method: as §1, §2, §3
# PKBα = PKBα (Homo sapiens, UniProt P31749); conditions: read-out: %Remaining activity at 1µM NU6300
# Method: as §1, §2, §3
# PIM2 = PIM2 (Homo sapiens, UniProt Q9P1W9); conditions: PIM2, 1µM; read-out: %Remaining activity at 1µM NU6300
# Method: as §1, §2, §3
# PKBβ = PKBβ (Homo sapiens, UniProt P31751); conditions: read-out: %Remaining activity at 1µM NU6300
# Method: as §1, §2, §3
# MPSK1 = MPSK1 (Homo sapiens, UniProt O75716); conditions: MPSK1, 1µM; read-out: %Remaining activity at 1µM NU6300
# Method: as §1, §2, §3
# NUAK1 = target: T1, NUAK1 (Homo sapiens, UniProt O60285); conditions: NUAK1, 1µM; read-out: %Remaining activity at 1µM NU6300
# T1 sequence (O60285 1-661): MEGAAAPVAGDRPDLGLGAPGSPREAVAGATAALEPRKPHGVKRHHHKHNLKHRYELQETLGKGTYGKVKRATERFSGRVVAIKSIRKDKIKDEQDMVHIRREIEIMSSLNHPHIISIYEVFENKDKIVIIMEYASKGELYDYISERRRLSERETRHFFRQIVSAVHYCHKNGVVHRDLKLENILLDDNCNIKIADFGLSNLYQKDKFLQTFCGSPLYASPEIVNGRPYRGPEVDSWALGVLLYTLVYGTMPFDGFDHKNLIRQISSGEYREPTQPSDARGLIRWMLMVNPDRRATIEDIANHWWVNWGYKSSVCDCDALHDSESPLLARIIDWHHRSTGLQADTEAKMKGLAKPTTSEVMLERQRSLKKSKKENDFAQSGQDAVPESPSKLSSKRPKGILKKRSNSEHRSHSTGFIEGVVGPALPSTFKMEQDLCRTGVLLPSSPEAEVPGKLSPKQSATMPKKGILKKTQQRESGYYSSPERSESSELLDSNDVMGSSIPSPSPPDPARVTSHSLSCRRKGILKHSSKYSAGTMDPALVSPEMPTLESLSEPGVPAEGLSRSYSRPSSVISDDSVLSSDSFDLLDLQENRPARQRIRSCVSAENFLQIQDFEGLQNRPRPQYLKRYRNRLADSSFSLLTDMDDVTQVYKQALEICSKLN
# Method: as §1, §2, §3
# PAK5 = PAK5 (Homo sapiens, UniProt Q9P286); conditions: PAK5, 1µM; read-out: %Remaining activity at 1µM NU6300
# Method: as §1, §2, §3
# PKCα = PKCα (Homo sapiens, UniProt P17252); conditions: read-out: %Remaining activity at 1µM NU6300
# Method: as §1, §2, §3
# PKCγ = PKCγ (Homo sapiens, UniProt P05129); conditions: read-out: %Remaining activity at 1µM NU6300
# Method: as §1, §2, §3
# PKD1 = PKD1 (Homo sapiens, UniProt Q15139); conditions: PKD1, 1µM; read-out: %Remaining activity at 1µM NU6300
# Method: as §1, §2, §3
# SYK = SYK (Homo sapiens, UniProt P43405); conditions: read-out: %Remaining activity at 1µM NU6300
# Method: as §1, §2, §3
# WNK1 = WNK1 (Homo sapiens, UniProt Q9H4A3); conditions: WNK1, 1µM; read-out: %Remaining activity at 1µM NU6300
# Method: as §1, §2, §3
# SIK2 = SIK2 (Homo sapiens, UniProt Q9H0K1); conditions: SIK2, 1µM; read-out: %Remaining activity at 1µM NU6300
# Method: as §1, §2, §3
# MST3 = MST3 (Homo sapiens, UniProt Q9Y6E0); conditions: MST3, 1µM; read-out: %Remaining activity at 1µM NU6300
# Method: as §1, §2, §3
# PHK = tested on: PHK
# Method: as §1, §2, §3
# MST4 = MST4 (Homo sapiens, UniProt Q9P289); conditions: MST4, 1µM; read-out: %Remaining activity at 1µM NU6300
# Method: as §1, §2, §3
# PAK6 = PAK6 (Homo sapiens, UniProt Q9NQU5); conditions: PAK6, 1µM; read-out: %Remaining activity at 1µM NU6300
# Method: as §1, §2, §3
# TESK1 = TESK1 (Homo sapiens, UniProt Q15569); conditions: TESK1, 1µM; read-out: %Remaining activity at 1µM NU6300
# Method: as §1, §2, §3
# PLK1 = PLK1 (Homo sapiens, UniProt P53350); conditions: PLK1, 1µM; read-out: %Remaining activity at 1µM NU6300
# Method: as §1, §2, §3
# STK33 = STK33 (Homo sapiens, UniProt Q9BYT3); conditions: STK33, 1µM; read-out: %Remaining activity at 1µM NU6300
# Method: as §1, §2, §3
# RSK2 = RSK2 (Homo sapiens, UniProt P51812); conditions: RSK2, 1µM; read-out: %Remaining activity at 1µM NU6300
# Method: as §1, §2, §3
# Chain of PAK6 (Q9NQU5 whole entry): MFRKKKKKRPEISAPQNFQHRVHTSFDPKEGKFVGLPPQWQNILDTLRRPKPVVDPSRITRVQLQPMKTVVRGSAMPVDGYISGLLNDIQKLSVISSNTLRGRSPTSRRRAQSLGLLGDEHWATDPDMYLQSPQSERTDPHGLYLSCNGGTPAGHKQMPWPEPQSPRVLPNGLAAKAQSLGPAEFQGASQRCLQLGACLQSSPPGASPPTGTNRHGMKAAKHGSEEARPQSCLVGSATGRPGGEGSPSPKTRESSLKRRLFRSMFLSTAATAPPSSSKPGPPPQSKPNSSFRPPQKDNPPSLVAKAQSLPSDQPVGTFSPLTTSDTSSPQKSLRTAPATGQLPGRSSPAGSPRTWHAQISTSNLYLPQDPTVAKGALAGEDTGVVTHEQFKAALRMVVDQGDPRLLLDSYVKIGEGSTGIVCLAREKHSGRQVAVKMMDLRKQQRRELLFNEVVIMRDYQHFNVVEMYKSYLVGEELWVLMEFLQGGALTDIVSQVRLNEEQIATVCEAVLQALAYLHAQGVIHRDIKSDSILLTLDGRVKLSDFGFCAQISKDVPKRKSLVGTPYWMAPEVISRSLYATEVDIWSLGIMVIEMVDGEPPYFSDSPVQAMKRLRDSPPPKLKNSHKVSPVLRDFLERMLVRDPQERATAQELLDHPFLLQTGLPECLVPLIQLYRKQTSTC
# Chain of MNK2 (Q9HBH9 whole entry): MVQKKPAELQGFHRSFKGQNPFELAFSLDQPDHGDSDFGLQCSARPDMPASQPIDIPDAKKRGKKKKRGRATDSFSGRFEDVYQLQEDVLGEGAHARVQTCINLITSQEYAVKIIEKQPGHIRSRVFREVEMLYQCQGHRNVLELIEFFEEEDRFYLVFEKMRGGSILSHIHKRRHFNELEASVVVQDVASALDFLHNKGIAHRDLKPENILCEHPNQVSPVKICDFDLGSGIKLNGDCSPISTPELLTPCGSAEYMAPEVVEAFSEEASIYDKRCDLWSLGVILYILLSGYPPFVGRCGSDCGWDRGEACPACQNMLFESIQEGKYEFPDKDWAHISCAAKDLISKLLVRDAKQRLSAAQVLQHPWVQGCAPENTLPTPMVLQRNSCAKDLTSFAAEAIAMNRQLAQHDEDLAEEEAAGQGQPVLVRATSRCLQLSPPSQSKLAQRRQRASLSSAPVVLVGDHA
# Chain of PIM2 (Q9P1W9 whole entry): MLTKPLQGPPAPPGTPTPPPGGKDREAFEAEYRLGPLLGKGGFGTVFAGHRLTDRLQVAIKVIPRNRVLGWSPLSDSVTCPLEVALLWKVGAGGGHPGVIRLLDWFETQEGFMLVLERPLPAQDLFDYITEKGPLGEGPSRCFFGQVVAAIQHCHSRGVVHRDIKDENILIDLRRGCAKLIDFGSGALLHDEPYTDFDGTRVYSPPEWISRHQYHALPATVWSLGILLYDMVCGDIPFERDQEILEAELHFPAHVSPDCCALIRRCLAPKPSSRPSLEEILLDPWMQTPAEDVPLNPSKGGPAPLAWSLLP
# Chain of MPSK1 (O75716 whole entry): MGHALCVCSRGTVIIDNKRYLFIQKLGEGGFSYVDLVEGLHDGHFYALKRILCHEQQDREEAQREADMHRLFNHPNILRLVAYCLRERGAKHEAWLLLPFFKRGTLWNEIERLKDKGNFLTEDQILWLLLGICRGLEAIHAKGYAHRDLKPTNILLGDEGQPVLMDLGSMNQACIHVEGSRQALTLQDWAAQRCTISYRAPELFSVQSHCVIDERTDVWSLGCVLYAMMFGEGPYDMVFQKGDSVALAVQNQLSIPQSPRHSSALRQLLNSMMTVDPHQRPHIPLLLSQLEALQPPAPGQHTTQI
# Chain of PAK5 (Q9P286 whole entry): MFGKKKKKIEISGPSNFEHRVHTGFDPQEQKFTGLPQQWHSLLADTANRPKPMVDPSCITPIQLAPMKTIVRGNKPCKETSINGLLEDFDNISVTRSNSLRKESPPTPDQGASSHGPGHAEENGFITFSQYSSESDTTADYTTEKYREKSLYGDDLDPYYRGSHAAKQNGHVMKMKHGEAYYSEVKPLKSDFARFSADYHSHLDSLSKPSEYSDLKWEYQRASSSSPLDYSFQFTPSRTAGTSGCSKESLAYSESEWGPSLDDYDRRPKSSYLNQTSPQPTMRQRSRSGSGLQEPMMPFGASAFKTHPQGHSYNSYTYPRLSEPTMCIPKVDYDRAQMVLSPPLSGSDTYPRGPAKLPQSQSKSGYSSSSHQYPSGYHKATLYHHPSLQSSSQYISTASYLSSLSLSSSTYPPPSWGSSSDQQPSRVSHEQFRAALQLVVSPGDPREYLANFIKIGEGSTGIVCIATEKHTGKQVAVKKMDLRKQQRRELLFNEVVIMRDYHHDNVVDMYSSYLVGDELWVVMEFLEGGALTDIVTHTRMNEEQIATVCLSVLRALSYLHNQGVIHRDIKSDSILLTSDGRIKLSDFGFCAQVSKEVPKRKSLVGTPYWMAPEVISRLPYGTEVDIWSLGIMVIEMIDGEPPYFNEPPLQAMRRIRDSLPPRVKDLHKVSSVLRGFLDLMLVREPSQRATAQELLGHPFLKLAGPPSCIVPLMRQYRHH
# Chain of MST4 (Q9P289 whole entry): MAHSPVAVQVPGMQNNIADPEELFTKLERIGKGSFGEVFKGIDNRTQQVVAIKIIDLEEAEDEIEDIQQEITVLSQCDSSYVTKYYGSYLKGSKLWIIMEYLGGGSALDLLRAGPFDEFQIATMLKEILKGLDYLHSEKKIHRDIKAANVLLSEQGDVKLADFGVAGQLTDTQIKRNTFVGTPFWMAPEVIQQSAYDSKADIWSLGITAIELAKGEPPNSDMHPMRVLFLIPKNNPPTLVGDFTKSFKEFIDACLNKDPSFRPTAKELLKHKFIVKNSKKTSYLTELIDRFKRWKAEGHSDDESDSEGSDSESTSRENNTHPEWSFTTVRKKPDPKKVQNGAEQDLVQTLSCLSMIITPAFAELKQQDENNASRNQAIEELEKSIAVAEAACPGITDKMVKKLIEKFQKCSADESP
# Chain of STK33 (Q9BYT3 whole entry): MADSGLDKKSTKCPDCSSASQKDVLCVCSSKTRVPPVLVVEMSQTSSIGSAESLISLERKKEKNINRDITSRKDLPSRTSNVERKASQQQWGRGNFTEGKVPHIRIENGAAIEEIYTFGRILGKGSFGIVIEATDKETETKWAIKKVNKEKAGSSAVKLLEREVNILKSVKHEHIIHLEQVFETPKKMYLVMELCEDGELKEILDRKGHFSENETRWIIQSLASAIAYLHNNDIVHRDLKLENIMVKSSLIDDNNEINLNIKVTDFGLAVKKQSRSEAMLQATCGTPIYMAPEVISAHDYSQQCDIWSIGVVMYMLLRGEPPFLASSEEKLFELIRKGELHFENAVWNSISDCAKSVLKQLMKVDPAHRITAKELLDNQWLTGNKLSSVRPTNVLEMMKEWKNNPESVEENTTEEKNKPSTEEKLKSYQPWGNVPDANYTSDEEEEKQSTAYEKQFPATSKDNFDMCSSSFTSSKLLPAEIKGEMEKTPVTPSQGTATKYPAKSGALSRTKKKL
compound,measurement,setting,value
"C=CS(=O)(=O)c1ccc(Nc2nc(OCC3CCCCC3)c3nc[nH]c3n2)cc1 [NU6300, 6-(cyclohexylmethoxy)-N-(4-(vinylsulfonyl)phenyl)-9H-purin-2-amine]",remaining activity at 1 µM,MNK2,91%
same,remaining activity at 1 µM,SRPK1,71%
same,remaining activity at 1 µM,PKBα,101%
same,remaining activity at 1 µM,PIM2,96%
same,remaining activity at 1 µM,PKBβ,89%
same,remaining activity at 1 µM,MPSK1,92%
same,remaining activity at 1 µM,NUAK1,2%
same,remaining activity at 1 µM,PAK5,48%
same,remaining activity at 1 µM,PKCα,86%
same,remaining activity at 1 µM,PKCγ,104%
same,remaining activity at 1 µM,PKD1,55%
same,remaining activity at 1 µM,SYK,58%
same,remaining activity at 1 µM,WNK1,103%
same,remaining activity at 1 µM,SIK2,22%
same,remaining activity at 1 µM,MST3,54%
same,%Remaining activity at 1µM NU6300,PHK,69%
same,remaining activity at 1 µM,MST4,39%
same,remaining activity at 1 µM,PAK6,73%
same,remaining activity at 1 µM,TESK1,78%
same,remaining activity at 1 µM,PLK1,90%
same,remaining activity at 1 µM,STK33,59%
same,remaining activity at 1 µM,RSK2,54%
